Columns and labels:
Assay in all cases: relative viability (nuclei count vs DMSO), 5 days (fraction); higher = more cells survive
[1] = system: LXF-289
Method in brief: (§1)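 Dosing by pin tool came one day after lung cancer cell lines were seeded in 1536-well plates, using either one drug or a fixed anchor-drug dose plus five library-drug doses (not always all listed) in √10 steps. After 5 days, nuclei were counted on 4× images. Relative viability is treated-well nuclei count divided by vehicle-well nuclei count, and values are medians of duplicate plates.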

[2] = system: LCLC-97TM1
Method in brief: as §1

[3] = system: NCI-H1944
Method in brief: as §1

[4] = system: NCI-H2126
Method in brief: as §1

[5] = system: NCI-H2087
Method in brief: as §1

[6] = system: NCI-H3122
Method in brief: as §1

[7] = system: EPLC-272H
Method in brief: as §1

[8] = system: NCI-H1650
Method in brief: as §1

[9] = system: NCI-H1793
Method in brief: as §1

[10] = system: HCC-78
Method in brief: as §1

[11] = system: NCI-H1395
Method in brief: as §1

[12] = system: NCI-H596
Method in brief: as §1

In the case of `CCNC(=O)c1noc(-c2cc(C(C)C)c(O)cc2O)c1-c1ccc(CN2CCOCC2)cc1` [Luminespib] + CS(=O)(=O)N1CCN(Cc2cc3nc(-c4cccc5[nH]ncc45)nc(N4CCOCC4)c3s2)CC1 [Pictilisib] (partner 1 µM), the relative viability ([1]; first compound 0.006325 µM) is reported as 0.809, the relative viability ([1]; first compound 0.02 µM) is reported as 0.714 and the relative viability ([1]; first compound 0.06325 µM) is reported as 0.121. The relative viability ([1]; first compound 0.2 µM) was 0.087, the relative viability ([2]; first compound 0.002 µM) was 0.17 and the relative viability ([2]; first compound 0.006325 µM) was 0.223. It also gave a relative viability ([2]; first compound 0.02 µM) of 0.113, a relative viability ([2]; first compound 0.06325 µM) of 0.103 and a relative viability ([2]; first compound 0.2 µM) of 0.0923. For the same compound, the relative viability ([3]; first compound 0.002 µM) was 0.337, the relative viability ([3]; first compound 0.006325 µM) was 0.258 and the relative viability ([3]; first compound 0.02 µM) was 0.262. The relative viability ([3]; first compound 0.06325 µM) was 0.28, the relative viability ([3]; first compound 0.2 µM) was 0.22 and the relative viability ([4]; first compound 0.002 µM) was 0.464. It also gave a relative viability ([4]; first compound 0.006325 µM) of 0.503, a relative viability ([4]; first compound 0.02 µM) of 0.399 and a relative viability ([4]; first compound 0.06325 µM) of 0.49. The relative viability ([4]; first compound 0.2 µM) was 0.273, the relative viability ([5]; first compound 0.002 µM) was 0.908 and the relative viability ([5]; first compound 0.006325 µM) was 0.776. For the same compound, the relative viability ([5]; first compound 0.02 µM) was 0.663, the relative viability ([5]; first compound 0.06325 µM) was 0.2 and the relative viability ([5]; first compound 0.2 µM) was 0.157. The relative viability ([6]; first compound 0.002 µM) was 0.621, the relative viability ([6]; first compound 0.006325 µM) was 0.621 and the relative viability ([6]; first compound 0.02 µM) was 0.368. It also gave a relative viability ([6]; first compound 0.06325 µM) of 0.166, a relative viability ([6]; first compound 0.2 µM) of 0.176 and a relative viability ([7]; first compound 0.006325 µM) of 0.267. It also gave a relative viability ([7]; first compound 0.02 µM) of 0.254, a relative viability ([7]; first compound 0.06325 µM) of 0.197 and a relative viability ([7]; first compound 0.2 µM) of 0.148. The relative viability ([8]; first compound 0.002 µM) was 0.593, the relative viability ([8]; first compound 0.006325 µM) was 0.653 and the relative viability ([8]; first compound 0.02 µM) was 0.199. It also gave a relative viability ([8]; first compound 0.06325 µM) of 0.129, a relative viability ([8]; first compound 0.2 µM) of 0.106 and a relative viability ([9]; first compound 0.002 µM) of 0.313. The relative viability ([9]; first compound 0.006325 µM) was 0.342, the relative viability ([9]; first compound 0.02 µM) was 0.12 and the relative viability ([9]; first compound 0.06325 µM) was 0.168. The relative viability ([9]; first compound 0.2 µM) was 0.194, the relative viability ([10]; first compound 0.002 µM) was 0.204 and the relative viability ([10]; first compound 0.06325 µM) was 0.267. For the same compound, the relative viability ([10]; first compound 0.2 µM) was 0.279, the relative viability ([11]; first compound 0.002 µM) was 0.684 and the relative viability ([11]; first compound 0.006325 µM) was 0.725. For the same compound, the relative viability ([11]; first compound 0.02 µM) was 0.429, the relative viability ([11]; first compound 0.06325 µM) was 0.326 and the relative viability ([11]; first compound 0.2 µM) was 0.377. For the same compound, the relative viability ([12]; first compound 0.002 µM) was 0.343, the relative viability ([12]; first compound 0.006325 µM) was 0.404 and the relative viability ([12]; first compound 0.06325 µM) was 0.275. For the same compound, the relative viability ([12]; first compound 0.2 µM) was 0.267.
